In ChEMBL document CHEMBL5661943, “ASAP - In vitro antiviral effect” (2024):

What was measured:
[1] = system: Zika virus; assay: (§1) Functional CPE-based assay to measure dose dependent changes in antiviral-drug inhibitory efficacy against Zika virus MR766 in Vero E6 miRFP670 cells (cotreated with P-gp inhibitor, CP100356). Cells are treated with antiviral candidates that are serially diluted. EC50 is reported via analysis of MTS assay as a readout of CPE. The assay has been performed by KU Leuven.; type: organism-based, Chlorocebus sabaeus, Vero C1008; conditions: Baseline response 0 %, Maximum response 100 %, P-gp concentration 500 nM, P-gp inhibitor CP100356
[2] = system: Zika virus; assay: as §1, with “cells.” for “cells (cotreated with P-gp inhibitor, CP100356).”; type: organism-based, Chlorocebus sabaeus, Vero C1008; conditions: for EC90: Baseline response 0 %, Maximum response 100 %
[3] = system: Zika virus; assay: EC50 is reported via analysis of immunofluorescence staining. The assay has been performed by Icahn School of Medicine at Mount Sinai.; type: functional, organism-based, Chlorocebus sabaeus, VeroE6/TMPRSS2; conditions: Baseline response 0 %, P-gp concentration 2 uM, P-gp inhibitor Elacidar
[4] = system: dengue virus type 2; assay: Functional immunofluorescence assay to measure dose dependent changes in antiviral-drug inhibitory efficacy against Dengue virus type 2 Thailand/16681/84 in Vero E6/TMPRSS2 cells (cotreated with P-gp inhibitor, Elacridar). Cells are treated with antiviral candidates that are serially diluted, following infection, cells are fixed. EC50 is reported via analysis of immunofluorescence staining. The assay has been performed by Icahn School of Medicine at Mount Sinai.; type: organism-based, Chlorocebus sabaeus, VeroE6/TMPRSS2; conditions: Baseline response 0 %, Maximum response 100 %, P-gp concentration 2 uM, P-gp inhibitor Elacidar
[5] = system: dengue virus type 2; assay: Functional assay to measure dose dependent changes in antiviral-drug inhibitory efficacy against Dengue virus type 2 New Guinea C in Vero E6 miRFP670 cells (cotreated with P-gp inhibitor, CP100356). Cells are treated with antiviral candidates that are serially diluted, following infection, cells are fixed. EC50 is reported via analysis of fluorescence intensity using high-content imager. The …; type: organism-based, Chlorocebus sabaeus, Vero C1008; conditions: Baseline response 0 %, Maximum response 100 %, P-gp concentration 500 nM, P-gp inhibitor CP100356

## C#C[C@@]1(O)[C@H](O)[C@@H](CO)O[C@H]1n1ccc2c(N)ncnc21
[1]; EC90 CI (lower) 0.21 uM, EC90 CI (upper) 1.971 uM, Hill slope 4.843, Maximum measured 127.846 %, Minimum measured 44.624 %, R squared 0.529
  EC90: 644 nM
[1]; EC90 CI (lower) 0.347 uM, EC90 CI (upper) 1.935 uM, Hill slope 4.005, Maximum measured 138.155 %, Minimum measured 32.327 %, R squared 0.565
  EC90: 819 nM
[1]; EC90 CI (lower) 0.485 uM, EC90 CI (upper) 1.678 uM, Hill slope 2.708, Maximum measured 115.594 %, Minimum measured 50.299 %, R squared 0.731
  EC90: 902 nM
[1]; EC90 CI (lower) 0.573 uM, EC90 CI (upper) 1.709 uM, Hill slope 2.773, Maximum measured 114.82 %, Minimum measured 43.135 %, R squared 0.56
  EC90: 990 nM
[1]; EC90 CI (lower) 0.644 uM, EC90 CI (upper) 1.624 uM, Hill slope 2.782, Maximum measured 120.433 %, Minimum measured 40.681 %, R squared 0.677
  EC90: 1020 nM
[1]; EC90 CI (lower) 0.736 uM, EC90 CI (upper) 2.012 uM, Hill slope 2.837, Maximum measured 119.107 %, Minimum measured 28.833 %, R squared 0.835
  EC90: 1220 nM
[1]; EC90 CI (lower) 0.778 uM, EC90 CI (upper) 1.421 uM, Hill slope 2.877, Maximum measured 117.074 %, Minimum measured 36.973 %, R squared 0.767
  EC90: 1050 nM
[1]; EC90 CI (lower) 1.744 uM, EC90 CI (upper) 2.505 uM, Hill slope 3.857, Maximum measured 108.608 %, Minimum measured 1.409 %, R squared 0.98
  EC90: 2090 nM
[1]; Hill slope -0.24, Maximum measured 59.299 %, Minimum measured 14.65 %, R squared 0.03
  EC90: < 391 nM
[2]; EC90 CI (lower) 0.609 uM, EC90 CI (upper) 2.047 uM, Hill slope 2.369, Maximum measured 114.788 %, Minimum measured 45.711 %, R squared 0.779
  EC90: 1120 nM
[2]; EC90 CI (lower) 0.671 uM, EC90 CI (upper) 2.798 uM, Hill slope 1.934, Maximum measured 102.059 %, Minimum measured 46.421 %, R squared 0.63
  EC90: 1370 nM
[2]; EC90 CI (lower) 0.837 uM, EC90 CI (upper) 2.594 uM, Hill slope 2.016, Maximum measured 108.843 %, Minimum measured 40.384 %, R squared 0.792
  EC90: 1470 nM
[2]; EC90 CI (lower) 0.846 uM, EC90 CI (upper) 2.023 uM, Hill slope 2.239, Maximum measured 110.829 %, Minimum measured 40.755 %, R squared 0.884
  EC90: 1310 nM
[2]; EC90 CI (lower) 0.889 uM, EC90 CI (upper) 2.697 uM, Hill slope 2.299, Maximum measured 106.469 %, Minimum measured 29.185 %, R squared 0.791
  EC90: 1550 nM
[2]; EC90 CI (lower) 1.189 uM, EC90 CI (upper) 2.428 uM, Hill slope 2.067, Maximum measured 109.57 %, Minimum measured 34.796 %, R squared 0.858
  EC90: 1700 nM
[2]; EC90 CI (lower) 1.447 uM, EC90 CI (upper) 5.92 uM, Hill slope 1.376, Maximum measured 98.736 %, Minimum measured 36.6 %, R squared 0.773
  EC90: 2930 nM
[2]; EC90 CI (lower) 2.603 uM, EC90 CI (upper) 13.676 uM, Hill slope 1.372, Maximum measured 98.49 %, Minimum measured 18.919 %, R squared 0.79
  EC90: 5970 nM
[2]; vero c1008
  EC50: 587 nM [middle of 8 runs]
[3]; EC90 CI (lower) 0.001 uM, EC90 CI (upper) 0.006 uM, Hill slope -0.989, Maximum measured 96.238 %, Maximum response 100 %, Minimum measured 0.519 %, R squared 0.897
  EC90: 224 nM
[3]; EC90 CI (lower) 0.002 uM, EC90 CI (upper) 0.011 uM, Hill slope -0.683, Maximum measured 98.748 %, Maximum response 100 %, Minimum measured 0.794 %, R squared 0.927
  EC90: 2880 nM
[3]; EC90 CI (lower) 0.002 uM, EC90 CI (upper) 0.016 uM, Hill slope -0.839, Maximum measured 81.893 %, Maximum response 100 %, Minimum measured 1.248 %, R squared 0.884
  EC90: 1180 nM
[3]; EC90 CI (lower) 0.007 uM, EC90 CI (upper) 0.18 uM, Hill slope -1.662, Maximum measured 169.951 %, Maximum response 100 %, Minimum measured 5.93 %, R squared 0.731
  EC90: 510 nM
[3]; EC90 CI (lower) 0.03 uM, EC90 CI (upper) 0.119 uM, Hill slope -3.091, Maximum measured 117.52 %, Maximum response 100 %, Minimum measured 1.1 %, R squared 0.948
  EC90: 247 nM
[3]; EC90 CI (lower) 0.051 uM, EC90 CI (upper) 0.519 uM, Hill slope -4.939, Maximum measured 48.685 %, Maximum response 50 %, Minimum measured […], R squared 0.852
  EC90: 395 nM
[3]; EC90 CI (lower) 0.102 uM, EC90 CI (upper) 0.325 uM, Hill slope -1.64, Maximum measured 123.086 %, Maximum response 100 %, Minimum measured 10.677 %, R squared 0.94
  EC90: 2650 nM
[3]; Hill slope -0.492, Maximum measured 74.448 %, Maximum response 100 %, Minimum measured 1.207 %, R squared 0.744
  EC90: > 10000 nM
[4]; EC90 CI (lower) 0.185 uM, EC90 CI (upper) 0.987 uM, Hill slope -1.843, Maximum measured 114.823 %, Minimum measured 1.4 %, R squared 0.854
  EC90: 4.64 µM
[4]; EC90 CI (lower) […] uM, EC90 CI (upper) 0.029 uM, Hill slope -0.795, Maximum measured 131.547 %, Minimum measured 0.898 %, R squared 0.782
  EC90: 1.45 µM
[4]; EC90 CI (lower) […] uM, EC90 CI (upper) 0.107 uM, Hill slope -1.582, Maximum measured 108.655 %, Minimum measured 1.401 %, R squared 0.84
  EC90: 0.595 µM
[4]; EC90 CI (lower) […] uM, EC90 CI (upper) 0.213 uM, Hill slope -0.879, Maximum measured 109.405 %, Minimum measured 0.502 %, R squared 0.793
  EC90: 8.04 µM
[5]; EC90 CI (lower) 0.063 uM, EC90 CI (upper) 0.198 uM, Hill slope -1.33, Maximum measured 59.85 %, Minimum measured 0.021 %, R squared 0.933
  EC90: 3.05 µM
[5]; EC90 CI (lower) 0.096 uM, EC90 CI (upper) 0.332 uM, Hill slope -1.394, Maximum measured 69.235 %, Minimum measured 0.073 %, R squared 0.818
  EC90: 4.17 µM
[5]; EC90 CI (lower) 0.135 uM, EC90 CI (upper) 0.222 uM, Hill slope -1.408, Maximum measured 67.754 %, Minimum measured 0.12 %, R squared 0.962
  EC90: 3.93 µM
[5]; EC90 CI (lower) 0.182 uM, EC90 CI (upper) 0.848 uM, Hill slope -1.407, Maximum measured 79.293 %, Minimum measured 0.097 %, R squared 0.879
  EC90: 8.93 µM
[5]; EC90 CI (lower) 0.301 uM, EC90 CI (upper) 0.481 uM, Hill slope -1.99, Maximum measured 82.418 %, Minimum measured 0.182 %, R squared 0.957
  EC90: 3.46 µM
[5]; EC90 CI (lower) 0.335 uM, EC90 CI (upper) 2.73 uM, Hill slope -2.159, Maximum measured 105.079 %, Minimum measured 6.932 %, R squared 0.477
  EC90: 7.32 µM
[5]; EC90 CI (lower) 0.344 uM, EC90 CI (upper) 0.572 uM, Hill slope -2.092, Maximum measured 82.86 %, Minimum measured 0.014 %, R squared 0.949
  EC90: 3.62 µM
[5]; EC90 CI (lower) 0.345 uM, EC90 CI (upper) 0.574 uM, Hill slope -1.668, Maximum measured 91.855 %, Minimum measured 0.191 %, R squared 0.984
  EC90: 6.21 µM
[5]; EC90 CI (lower) 0.345 uM, EC90 CI (upper) 1.174 uM, Hill slope -1.957, Maximum measured 94.468 %, Minimum measured 0.047 %, R squared 0.91
  EC90: 6.02 µM
[5]; EC90 CI (lower) 0.37 uM, EC90 CI (upper) 0.571 uM, Hill slope -1.792, Maximum measured 85.803 %, Minimum measured 0.04 %, R squared 0.97
  EC90: 5.34 µM
[5]; EC90 CI (lower) 0.614 uM, EC90 CI (upper) 2.492 uM, Hill slope -4.433, Maximum measured 159.506 %, Minimum measured 0.037 %, R squared 0.838
  EC90: 3.33 µM
[5]; EC90 CI (lower) 0.95 uM, EC90 CI (upper) 1.728 uM, Hill slope -2.215, Maximum measured 94.435 %, Minimum measured 0.459 %, R squared 0.976
  EC90: 9.32 µM
[5]; EC90 CI (lower) 1.094 uM, EC90 CI (upper) 1.586 uM, Hill slope -2.299, Maximum measured 103.071 %, Minimum measured 0.093 %, R squared 0.991
  EC90: 8.91 µM
[5]; EC90 CI (lower) 1.321 uM, EC90 CI (upper) 1.732 uM, Hill slope -3.141, Maximum measured 106.546 %, Minimum measured 0.058 %, R squared 0.995
  EC90: 6.13 µM
[5]; EC90 CI (lower) 1.689 uM, EC90 CI (upper) 2.244 uM, Hill slope -3.785, Maximum measured 107.412 %, Minimum measured 0.007 %, R squared 0.985
  EC90: 6.21 µM
[5]; EC90 CI (lower) […], EC90 CI (upper) 1.65 uM, Hill slope -1.956, Maximum measured 86.89 %, Minimum measured 0.152 %, R squared 0.926
  EC90: 9.09 µM
